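The compound was tested at five concentrations on cells cultured in 96-well plates, with a 48-hour exposure period. TGI: concentration producing complete growth inhibition.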
Assays:
Assay in all cases: DTP human tumour cell line panel, 48 h
SR leukemia = tested on: SR leukemia
HL-60(TB) leukemia = tested on: HL-60(TB) leukemia
OVCAR-8 ovarian = tested on: OVCAR-8 ovarian
DU-145 prostate = tested on: DU-145 prostate
SW-620 colon = tested on: SW-620 colon
OVCAR-5 ovarian = tested on: OVCAR-5 ovarian
LOX IMVI melanoma = tested on: LOX IMVI melanoma
SNB-75 CNS = tested on: SNB-75 CNS
SK-MEL-2 melanoma = tested on: SK-MEL-2 melanoma
HOP-62 NSCLC = tested on: HOP-62 NSCLC
CCRF-CEM leukemia = tested on: CCRF-CEM leukemia
U251 CNS = tested on: U251 CNS

Row | SMILES | TGI (SR leukemia) [µM] | TGI (HL-60(TB) leukemia) [µM] | TGI (OVCAR-8 ovarian) [µM] | TGI (DU-145 prostate) [µM] | TGI (SW-620 colon) [µM] | TGI (OVCAR-5 ovarian) [µM] | TGI (LOX IMVI melanoma) [µM] | TGI (SNB-75 CNS) [µM] | TGI (SK-MEL-2 melanoma) [µM] | TGI (HOP-62 NSCLC) [µM] | TGI (CCRF-CEM leukemia) [µM] | TGI (U251 CNS) [µM]
1 | COC(=O)C1(C)OC(C)=NC1(C(=O)OC)C(=O)OC (stereo not drawn) | > 100 | 14.4 | > 100 | > 100 | > 100 | > 100 | > 100 | > 100 | > 100 | > 100 | > 44 | > 100
2 | COc1cccc(C(=O)N[C@@H]2[C@H](O)[C@@H](CO)O[C@H]2n2cnc3c(N)ncnc32)c1 | > 100 | > 100 | > 100 | > 100 | > 100 | > 100 | > 100 | > 100 | > 100 | > 100 | > 100 | > 100
3 | Oc1ccccc1-n1nc2ccc3nonc3c2n1 | > 100 | > 100 | > 100 | > 100 | > 100 | > 100 | > 100 | > 100 | > 100 | > 100 | > 100 | > 100
4 | Nc1nc(NCCOCP(=O)(O)O)c(N)c(=O)[nH]1 | > 100 | > 100 | > 100 | > 100 | > 100 | > 100 | > 100 | > 100 | > 100 | > 100 | > 100 | > 100
5 | S=C(Nc1cccc(C2(N3CCCCC3)CCCCC2)c1)Nc1cccc(C2(N3CCCCC3)CCCCC2)c1 | 31.6 | 38.2 | 59.2 | 80.8 | > 100 | > 100 | 26.7 | 28.6 | 33.3 | > 100 | 34 | 50.4
6 | O=C1c2c(ccc3c2CCCC3)CC1Cc1ccc2c(c1)CCCC2 (stereo not drawn) | 67.6 | 46.9 | > 100 | > 100 | > 100 | > 100 | > 100 | > 100 | > 100 | > 100 | 59.7 | > 100
7 | CCCc1cc(-c2ccc(-c3cc(CCC)c(C=O)[nH]3)s2)[nH]c1C=O | > 100 | > 48.8 | > 100 | > 100 | > 100 | 58.7 | 32.1 | > 100 | > 59.7 | > 100 | > 100 | > 100
8 | CC(C)(CN)SCc1ccccc1 | > 100 | > 100 | > 100 | > 100 | > 100 | > 100 | > 100 | > 100 | > 100 | > 100 | > 100 | > 100
9 | OC1(c2ccc3ccccc3c2)c2c(c3ccccc3c3ccccc23)C2=NCCN21 (stereo not drawn) | > 28.4 | > 100 | > 30.3 | > 65.3 | 23 | > 83.7 | 5.41 | 14.7 | > 46.3 | 23.3 | > 100 | 17.7

— PubChem BioAssay (NCI)
